# Like-named read-outs stand apart in the source and are kept apart here. Ends that are not written are not given here. Peptide text beside a SMILES is read from it. * marks the point of attachment. Biotin = O=C1N[C@H]2[C@H](CS[C@H]2CCCCC(=O)*)N1
# Key:
# Type in all cases: binding
# [1] = target: T1, PDZ protein (GST-PDZ fusion) (Homo sapiens, UniProt Q13796); assay: G' assay (10 uM PL peptide), results of TABLE 7 and TABLE 12; details: PDZ hAPXL, PDZ Domain 1
# T1 construct: made in house; host or cells: E. coli (DH5alpha, BL21 or JM109)
# T1 sequence (Q13796 whole entry, the tested form may be a part): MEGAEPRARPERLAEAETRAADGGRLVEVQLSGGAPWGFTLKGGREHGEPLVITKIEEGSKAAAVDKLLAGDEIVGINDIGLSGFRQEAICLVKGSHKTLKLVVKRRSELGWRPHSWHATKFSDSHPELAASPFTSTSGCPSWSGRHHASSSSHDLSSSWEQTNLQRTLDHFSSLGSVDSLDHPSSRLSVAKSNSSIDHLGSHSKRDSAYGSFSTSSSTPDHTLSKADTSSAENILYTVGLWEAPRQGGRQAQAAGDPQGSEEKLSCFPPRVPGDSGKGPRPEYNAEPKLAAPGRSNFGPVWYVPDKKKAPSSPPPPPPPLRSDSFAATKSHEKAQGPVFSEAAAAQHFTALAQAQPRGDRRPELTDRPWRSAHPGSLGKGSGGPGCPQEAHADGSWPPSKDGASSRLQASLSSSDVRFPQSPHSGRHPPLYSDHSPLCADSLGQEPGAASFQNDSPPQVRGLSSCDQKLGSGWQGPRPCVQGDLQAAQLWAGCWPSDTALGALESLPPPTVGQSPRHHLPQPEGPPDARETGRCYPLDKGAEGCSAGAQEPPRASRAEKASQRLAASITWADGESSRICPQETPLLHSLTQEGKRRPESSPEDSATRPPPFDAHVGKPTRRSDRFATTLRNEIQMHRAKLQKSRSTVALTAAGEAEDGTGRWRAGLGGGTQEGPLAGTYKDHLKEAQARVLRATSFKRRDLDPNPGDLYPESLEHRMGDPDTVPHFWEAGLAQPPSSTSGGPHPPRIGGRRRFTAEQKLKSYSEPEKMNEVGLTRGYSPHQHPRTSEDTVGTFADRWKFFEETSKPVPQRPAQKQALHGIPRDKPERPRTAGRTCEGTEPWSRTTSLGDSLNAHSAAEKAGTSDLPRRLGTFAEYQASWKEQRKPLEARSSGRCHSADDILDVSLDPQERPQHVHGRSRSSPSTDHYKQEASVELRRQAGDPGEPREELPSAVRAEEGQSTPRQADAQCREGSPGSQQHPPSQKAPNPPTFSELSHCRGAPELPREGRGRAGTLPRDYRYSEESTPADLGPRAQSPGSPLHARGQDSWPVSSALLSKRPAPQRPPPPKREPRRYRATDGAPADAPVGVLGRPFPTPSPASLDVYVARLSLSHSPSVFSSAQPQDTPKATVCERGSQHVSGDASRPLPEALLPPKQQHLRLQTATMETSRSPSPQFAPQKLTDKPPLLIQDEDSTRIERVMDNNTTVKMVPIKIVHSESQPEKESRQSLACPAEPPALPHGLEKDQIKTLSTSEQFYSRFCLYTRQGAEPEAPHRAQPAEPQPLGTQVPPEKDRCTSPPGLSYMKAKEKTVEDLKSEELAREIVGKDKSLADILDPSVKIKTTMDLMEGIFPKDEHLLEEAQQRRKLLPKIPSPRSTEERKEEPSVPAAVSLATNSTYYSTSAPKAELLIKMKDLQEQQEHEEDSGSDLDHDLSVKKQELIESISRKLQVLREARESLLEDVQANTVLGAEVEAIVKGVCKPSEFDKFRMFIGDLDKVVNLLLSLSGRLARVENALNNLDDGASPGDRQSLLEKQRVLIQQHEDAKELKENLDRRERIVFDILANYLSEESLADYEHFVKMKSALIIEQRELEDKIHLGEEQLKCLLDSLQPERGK
# Method in brief: (§1)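 Biotin-PL peptide (N-term label), 10 uM vs GST-PDZ; protein 5 ug/ml by default. A450 nm binned: 1 = 0-1, 2 = 1-2, 3 = 2-3, 4 = 3-4, 5 = >4 on >2 repeats, 0 = no binding.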
# [2] = target: T2, PDZ protein (GST-PDZ fusion) (Homo sapiens, UniProt Q9NZN5); assay: as above; details: PDZ KIAA0382, PDZ Domain 1
# T2 construct: made in house; host or cells: E. coli (DH5alpha, BL21 or JM109)
# T2 sequence (Q9NZN5 whole entry, the tested form may be a part): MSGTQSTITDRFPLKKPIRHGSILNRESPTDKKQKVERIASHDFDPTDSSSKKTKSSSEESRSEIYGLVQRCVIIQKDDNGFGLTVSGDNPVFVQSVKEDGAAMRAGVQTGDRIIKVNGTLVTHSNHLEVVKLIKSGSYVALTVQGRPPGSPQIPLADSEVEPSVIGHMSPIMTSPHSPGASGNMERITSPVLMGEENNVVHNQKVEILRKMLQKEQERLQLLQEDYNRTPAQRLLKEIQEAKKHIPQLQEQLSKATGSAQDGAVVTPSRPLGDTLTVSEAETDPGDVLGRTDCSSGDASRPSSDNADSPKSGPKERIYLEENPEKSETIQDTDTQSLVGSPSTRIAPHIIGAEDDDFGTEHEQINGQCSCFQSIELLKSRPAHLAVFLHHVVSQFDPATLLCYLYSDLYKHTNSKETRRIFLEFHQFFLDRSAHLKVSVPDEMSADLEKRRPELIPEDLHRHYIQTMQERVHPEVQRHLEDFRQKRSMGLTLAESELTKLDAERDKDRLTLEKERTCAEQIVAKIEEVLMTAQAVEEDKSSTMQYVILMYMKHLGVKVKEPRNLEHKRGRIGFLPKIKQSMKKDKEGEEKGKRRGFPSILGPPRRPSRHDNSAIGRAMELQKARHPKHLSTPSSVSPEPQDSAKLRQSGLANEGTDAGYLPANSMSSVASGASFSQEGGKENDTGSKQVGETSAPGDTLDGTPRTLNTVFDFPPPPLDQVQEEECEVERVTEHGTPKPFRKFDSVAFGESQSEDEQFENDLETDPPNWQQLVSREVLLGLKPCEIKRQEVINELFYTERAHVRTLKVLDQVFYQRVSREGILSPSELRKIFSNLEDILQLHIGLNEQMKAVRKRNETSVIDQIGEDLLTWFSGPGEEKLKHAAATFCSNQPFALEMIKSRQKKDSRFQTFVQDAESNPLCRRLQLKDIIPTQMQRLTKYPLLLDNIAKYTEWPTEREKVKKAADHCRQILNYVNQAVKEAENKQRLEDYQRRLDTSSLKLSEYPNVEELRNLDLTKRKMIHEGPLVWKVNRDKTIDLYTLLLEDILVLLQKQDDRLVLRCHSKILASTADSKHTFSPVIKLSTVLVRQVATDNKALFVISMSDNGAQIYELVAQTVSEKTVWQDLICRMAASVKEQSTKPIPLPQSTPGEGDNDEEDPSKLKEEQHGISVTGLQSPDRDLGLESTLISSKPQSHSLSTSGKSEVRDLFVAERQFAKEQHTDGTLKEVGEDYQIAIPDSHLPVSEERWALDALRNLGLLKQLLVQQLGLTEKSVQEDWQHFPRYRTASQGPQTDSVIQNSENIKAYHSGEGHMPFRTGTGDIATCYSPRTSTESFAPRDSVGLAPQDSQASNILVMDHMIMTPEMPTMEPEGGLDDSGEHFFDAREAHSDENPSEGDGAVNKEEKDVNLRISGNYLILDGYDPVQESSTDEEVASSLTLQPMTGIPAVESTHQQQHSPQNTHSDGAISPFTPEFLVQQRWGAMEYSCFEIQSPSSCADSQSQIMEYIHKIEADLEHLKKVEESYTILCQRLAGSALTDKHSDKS
# Method in brief: as §1
# [3] = target: T3, PDZ protein (GST-PDZ fusion) (Homo sapiens, UniProt Q9P202); assay: as above; details: PDZ KIAA1526, PDZ Domain 1
# T3 construct: made in house; host or cells: E. coli (DH5alpha, BL21 or JM109)
# T3 sequence (Q9P202 1-907): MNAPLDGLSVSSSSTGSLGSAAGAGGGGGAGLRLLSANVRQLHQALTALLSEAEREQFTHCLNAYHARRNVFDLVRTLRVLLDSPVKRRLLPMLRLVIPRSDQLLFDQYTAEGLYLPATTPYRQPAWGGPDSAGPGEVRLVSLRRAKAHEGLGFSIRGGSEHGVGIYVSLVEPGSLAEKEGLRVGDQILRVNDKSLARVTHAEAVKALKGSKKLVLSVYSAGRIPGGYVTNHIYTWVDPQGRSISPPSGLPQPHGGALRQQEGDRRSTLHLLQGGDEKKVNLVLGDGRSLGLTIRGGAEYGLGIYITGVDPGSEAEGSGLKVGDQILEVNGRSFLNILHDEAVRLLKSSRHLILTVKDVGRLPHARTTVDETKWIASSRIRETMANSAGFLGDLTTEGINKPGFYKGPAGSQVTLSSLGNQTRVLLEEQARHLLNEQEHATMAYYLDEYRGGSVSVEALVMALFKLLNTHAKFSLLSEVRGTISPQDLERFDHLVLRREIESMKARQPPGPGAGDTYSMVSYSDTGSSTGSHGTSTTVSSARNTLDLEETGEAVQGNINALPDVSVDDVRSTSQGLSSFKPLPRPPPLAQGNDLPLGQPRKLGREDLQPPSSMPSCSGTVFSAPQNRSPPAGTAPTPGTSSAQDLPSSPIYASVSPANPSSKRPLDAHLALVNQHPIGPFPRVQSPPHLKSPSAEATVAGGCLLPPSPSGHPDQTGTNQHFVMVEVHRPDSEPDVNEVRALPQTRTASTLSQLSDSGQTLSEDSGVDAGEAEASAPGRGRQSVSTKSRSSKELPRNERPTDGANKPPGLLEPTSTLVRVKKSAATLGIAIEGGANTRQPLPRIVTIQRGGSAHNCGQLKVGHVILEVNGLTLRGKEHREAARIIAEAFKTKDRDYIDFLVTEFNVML
# Method in brief: as §1
# [4] = target: T4, PDZ protein (GST-PDZ fusion) (Homo sapiens, UniProt P57105); assay: as above; details: PDZ Outer Membrane, PDZ Domain 1
# T4 construct: made in house; host or cells: E. coli (DH5alpha, BL21 or JM109)
# T4 sequence (P57105 1-145): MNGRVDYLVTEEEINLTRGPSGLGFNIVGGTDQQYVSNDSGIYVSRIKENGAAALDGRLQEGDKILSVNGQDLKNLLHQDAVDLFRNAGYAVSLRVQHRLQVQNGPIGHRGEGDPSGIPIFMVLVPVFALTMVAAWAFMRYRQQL
# Method in brief: as §1
# [5] = target: PDZ-domain polypeptide (GST/PDZ fusion protein); assay: Apparent affinity (Kd) by titration of PL peptide in the G assay; details: read-out: Peptide Optimal Conc (Kd by titration of the PL peptide)
# Method in brief: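 A fixed concentration of GST/PDZ fusion protein, 5 ug/ml by default, was mixed in solution with increasing labeled PL peptide (e.g. 0.1 uM-1 mM). Reaction times ranged from 10 minutes to 2 days at 4-37° C. Complexes were separated from free peptide and detected via the label as in the G assay, apparent affinity coming from the saturating concentration.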
Classification [1],Classification [2],Classification [4],Compound,Classification [3],further results
5 (A450 nm of 4 more than 2× repeated),5 (A450 nm of 4 more than 2× repeated),–,CC[C@H](C)[C@H](NC(=O)CNC(=O)[C@H](CO)NC(=O)[C@H](Cc1ccccc1)NC(=O)[C@@H](NC(=O)[C@H](CS)NC(=O)CNC(=O)CNC(=O)[C@H](C)NC(=O)[C@@H]1CCCN1C(=O)[C@@H](NC(=O)[C@@H]1CCCN1C(=O)CCCC[C@@H]1SC[C@@H]2NC(=O)N[C@@H]21)[C@@H](C)CC)[C@@H](C)O)C(=O)N[C@@H](Cc1ccccc1)C(=O)N1CCC[C@H]1C(=O)N[C@H](C(=O)N[C@@H](CC(C)C)C(=O)N[C@H](C(=O)N[C@@H](CO)C(=O)N1CCC[C@H]1C(=O)N[C@@H](CC(C)C)C(=O)O)[C@@H](C)O)[C@@H](C)O [KIA 1481] (Biotin-PIPAGGCTFSGIFPTLTSPL-OH; C-terminus assumed),2 (A450 nm 1-2),–
1 (A450 nm 0-1),1 (A450 nm 0-1),5 (A450 nm of 4 more than 2× repeated),TQGFPGPATWRRISSLESEV,3 (A450 nm 2-3),–
2 (A450 nm 1-2),2 (A450 nm 1-2),–,VHDAESSDEDGYDWGPATDL (Biotin-VHDAESSDEDGYDWGPATDL) [zona occludens 3 (ZO-3)],1 (A450 nm 0-1),–
–,–,–,CC[C@H](C)[C@H](NC(=O)[C@H](CCCCN)NC(=O)[C@@H](NC(=O)[C@H](CO)NC(=O)[C@@H]1CCCN1C(=O)[C@H](Cc1ccccc1)NC(=O)[C@@H](NC(=O)[C@@H](NC(=O)[C@H](CCCNC(=N)N)NC(=O)[C@H](CCC(=O)O)NC(=O)[C@H](CC(C)C)NC(=O)[C@H](CC(C)C)NC(=O)[C@H](CC(C)C)NC(=O)[C@@H](NC(=O)CNC(=O)[C@@H](NC(=O)CCCC[C@@H]1SC[C@@H]2NC(=O)N[C@@H]21)C(C)C)[C@@H](C)O)C(C)C)[C@@H](C)CC)C(C)C)C(=O)N[C@@H](C)C(=O)N[C@H](C(=O)N[C@@H](CC(C)C)C(=O)N[C@H](C(=O)O)C(C)C)[C@@H](C)O [Adenovirus E4 Type9],–,"Kd ([5]; PDZ BAI-1, PDZ Domain 2, Protein Optimal Conc 0.3): 20 nM; Kd ([5]; PDZ BAI-1, PDZ Domain 3, Protein Optimal Conc 0.5): 75 nM; Kd ([5]; PDZ BAI-1, PDZ Domain 4, Protein Optimal Conc 0.3): 100 nM; Kd ([5]; PDZ HEMBA 1003117, PDZ Domain 1, Protein Optimal Conc 5): 300 nM; Classification ([2]; PL peptide 10 uM): 1 (A450 nm 0-1); Classification ([4]; Protein Optimal Conc 5): 5 (A450 nm of 4 more than 2× repeated)"
2 (A450 nm 1-2),1 (A450 nm 0-1),2 (A450 nm 1-2),CC[C@H](C)[C@H](NC(=O)[C@H](CO)NC(=O)[C@H](CCC(=O)O)NC(=O)[C@H](Cc1ccc(O)cc1)NC(=O)[C@H](CC(=O)O)NC(=O)[C@H](CC(N)=O)NC(=O)[C@H](CCC(=O)O)NC(=O)[C@H](CCCCN)NC(=O)CCCC[C@@H]1SC[C@@H]2NC(=O)N[C@@H]21)C(=O)N[C@@H](CO)C(=O)N[C@@H](CC(=O)O)C(=O)N[C@@H](CC(C)C)C(=O)N[C@@H](CCC(N)=O)C(=O)N[C@@H](CCC(N)=O)C(=O)NCC(=O)N[C@@H](CCCNC(=N)N)C(=O)N[C@@H](CC(=O)O)C(=O)N[C@H](C(=O)N[C@H](C(=O)N[C@@H](CCCNC(=N)N)C(=O)N[C@@H](CC(C)C)C(=O)O)[C@@H](C)O)[C@@H](C)CC [PAG] (Biotin-KENDYESISDLQQGRDITRL-OH; C-terminus assumed),–,–
–,1 (A450 nm 0-1),2 (A450 nm 1-2),APC—adenomatous polyposis coli protein (ESSGTQSPKRHSGSYLVTSV),–,–

Compound,Classification [1],Classification [2],Classification [4],Classification [3],further results
LNETTETQRTLLNGDLQTSI (Biotin-LNETTETQRTLLNGDLQTSI) [SSTR2 (somatostatin recepor 2)],–,1 (A450 nm 0-1),–,1 (A450 nm 0-1),–
CSCC[C@H](NC(=O)[C@H](C)NC(=O)[C@H](CCCNC(=N)N)NC(=O)CNC(=O)[C@@H](NC(=O)[C@H](Cc1c[nH]c2ccccc12)NC(=O)[C@H](CCCNC(=N)N)NC(=O)CNC(=O)CCCC[C@@H]1SC[C@@H]2NC(=O)N[C@@H]21)[C@@H](C)O)C(=O)N[C@@H](CO)C(=O)N[C@@H](C)C(=O)N[C@@H](Cc1c[nH]c2ccccc12)C(=O)N[C@@H](CCCCN)C(=O)N1CCC[C@H]1C(=O)N[C@H](C(=O)N[C@@H](CCCNC(=N)N)C(=O)N[C@@H](CCCNC(=N)N)C(=O)N[C@@H](CCC(=O)O)C(=O)N[C@H](C(=O)N[C@@H](CCC(=O)O)C(=O)N[C@H](C(=O)O)C(C)C)[C@@H](C)O)[C@@H](C)O [HPV E6 #35 (modified)] (Biotin-GRWTGRAMSAWKPTRRETEV-OH; C-terminus assumed),–,2 (A450 nm 1-2),5 (A450 nm of 4 more than 2× repeated),3 (A450 nm 2-3),"Kd ([5]; PDZ FLJ 00011, PDZ Domain 1): 350 nM"
CC(C)C[C@H](NC(=O)[C@H](C)NC(=O)[C@@H](NC(=O)[C@@H](NC(=O)[C@H](Cc1c[nH]cn1)NC(=O)[C@H](CC(C)C)NC(=O)CNC(=O)[C@H](CCC(N)=O)NC(=O)CNC(=O)CNC(=O)[C@H](C)NC(=O)[C@H](C)NC(=O)[C@H](CCCNC(=N)N)NC(=O)[C@H](C)NC(=O)[C@H](CO)NC(=O)[C@H](CC(=O)O)NC(=O)[C@H](CC(=O)O)NC(=O)[C@H](Cc1c[nH]c2ccccc12)NC(=O)[C@H](C)NC(=O)CCCC[C@@H]1SC[C@@H]2NC(=O)N[C@@H]21)C(C)C)[C@@H](C)O)C(=O)O [LPAP] (Biotin-AWDDSARAAGGQGLHVTAL-OH; C-terminus assumed),1 (A450 nm 0-1),5 (A450 nm of 4 more than 2× repeated),–,1 (A450 nm 0-1),"Kd ([5]; PDZ FLJ 00011, PDZ Domain 1): 1500 nM"
